# Measurements published in patent publication US11590117B2, “Treatment of a hematologic malignancy with 2-(4-chlorophenyl)-n-((2-(2,6-dioxopiperidin-3-yl)-1-oxoisoindolin-5-yl)methyl)-2,2-difluoroacetamide” (priority 2016, dated 2023).
# pIC50: −log10 of the molar value. Where two headings read alike, the source gives them in different places.
# How the values were obtained:
# HNT-34 cells = test: Compound 1 washout assay (glutarimide washout, viability at 72 hours); type: cell-based, human; details: viability after 72 hours
# Method: Compound 1 Washout Assay: For washout experiments, AML cell lines were plated in U-bottom 96-well plates at a density of 60,000 cells per well. All cells were treated at time zero (t=0) with Compound 1, then, at each time point, cells were resuspended in washout media containing glutarimide at 1000-fold excess over the compound working concentration (eg, 100 μM glutarimide for washout of 100 nM compound treatment). At the end of the incubation period, the plates were centrifuged for 3 minutes at 200 g, supernatant was removed, and cells were resuspended in 100 μL/well 1× Annexin V binding buffer containing Annexin V (2.5 μL/well) and 7-AAD (5 μL/well). Flow cytometry was performed using a BD FACSarray instrument and results were quantified using FlowJo software. At the same time, CTG was added to the 96-(black) well plates and processed as described above in the cell proliferation assay.
# In order to determine at what time point Compound 1 causes AML cell lines to commit to apoptosis, washout experiments were performed at different time points, and the cell viability was assessed after 72 hours (see schematic in FIG. 30 A). Compound 1 (100 nM) irreversibly committed the cells to apoptosis within 8 to 16 hours of treatment (FIG. 30 B). Washing out 100 nM Compound 1 between 1 and 4 hours reduced the potency (right-shift in the EC50 curve) by ˜10-fold.
# [1] = tested on: BFU-E (erythroid progenitors); test: cells; type: cell-based, human; details: for pIC50: Homo sapiens
# Method: Experimental design: human bone marrow (BM) CD34+ cells were used to evaluate the potential for BM toxicity induced by Compound 1. In order to test the effects of Compound 1 on the functionality of hematopoietic progenitors, colony forming assays were done by seeding BM CD34+ cells on MethoCult medium. Cells were seeded directly in MethoCult with Compound 1 or cultured in liquid medium with Compound 1 for 2, 4, or 8 hours and then seeded in compound-free MethoCult to evaluate the effect of different exposure times. Early apoptosis induced by Compound 1 on HSC was analyzed by flow cytometry.
# Results. Colony forming units (CFU) of common granulocyte/erythrocyte/monocyte/megakaryocyte (CFU-GEMM), CFU of granulocyte/monocyte (CFU-GM), burst forming unit of erythrocytes (BFU-E), and CFU of erythrocytes (CFU-E) in cultures exposed to Compound 1 or DMSO were scored on STEMvision.
# Bone marrow CD34+ cells from normal donors were incubated with Compound 1 in MethoCult medium. Colony numbers for CFU-GM and BFU-E progenitors were counted using STEMVision automatic colony counting instrument and software and normalized to the colony number of the DMSO control. Results plotted as percentage of DMSO control vs concentration of Compound 1 were used to determine IC50 values. Data are shown as mean standard error of the mean of n=3 technical replicates. Donors were HD10, HD14, HD18, and HD19.
# FIGS. 33A and 33B provide, colony numbers after preincubation of bone marrow CD34+ cells with Compound 1 for 4 or 8 hours, respectively, in Iscove's medium, followed by incubation in MethoCult medium without Compound 1 for 14 days. FIG. 33C provides colony numbers after incubation of bone marrow CD34+ cells in MethoCult medium in continuous presence of Compound 1 for 14 days.
structure (smiles),measurement,setting,value
"O=C1CCC(N2Cc3cc(CNC(=O)C(F)(F)c4ccc(Cl)cc4)ccc3C2=O)C(=O)N1 (centres unmarked) [Compound 1, 2-(4-chlorophenyl)-N-((2-(2,6-dioxopiperidin-3-yl)-1-oxoisoindolin-5-yl)methyl)-2,2-difluoroacetamide]",reduction of potency on washout,HNT-34 cells; washout at 8 to 16 hours,~4 fold
same,reduction of potency (right-shift in the EC50 curve) on washout,HNT-34 cells; washout between 1 and 4 hours,~10 fold
same,reduction in number of BFU-E colonies,"[1]; 8 hours exposure, Compound 1 ≥111 nM, donors HD46, HD47, HD48, HD50",more than 50%
same,pIC50,"[1]; 8 hours exposure, donors HD46, HD47, HD48, HD50, read-out: individual IC50 values, BFU-E colonies",6.82 to 7.52
same,pIC50,"[1]; CD34+ cells from four healthy donors, Compound 1 in MethoCult, read-out: IC50, inhibition of erythroid progenitors (BFU-E)",6.88 to 7.49
